In patent EP2832348B1, “METHOD FOR DISSOLVING FLAVONOID COMPOUND, CARBON GLYCOSIDE COMPOUND, OR STILBENE COMPOUND AND METHOD FOR PREPARING AN INJECTION OR A POWDER FOR INJECTION” (Kunming Pharmaceutical Corp., priority 2012, dated 2013):

Assay: Dissolving the compound with solubilizer in heated, vacuum-stirred water for injection under nitrogen or argon gas (preparation tank)
Assay type: physicochemical
Details: kept at 80 °C
Description: In view of this, the present invention provides a method for dissolving a carbon glycoside compound or a stilbene compound, characterized in that the method comprises the following steps: • heating water for injection to 80-98 °C, followed by stirring under vacuum condition at 30-80 °C, and then adding the carbon glycoside compound or the stilbene compound along with a solubilizer under the protection of nitrogen gas or argon gas to obtain a solution of said compounds; • wherein the solubilizer is one or a mixture of two or more of gastrodin, water-soluble cyclodextrin and ethanol, and wherein the water-soluble cyclodextrin is one or a mixture of two or more of methyl-β-cyclodextrin, thioether-β-cyclodextrin and sulfobutyl ether-β-cyclodextrin; and • wherein the mass ratio of the carbon glycoside compound or the stilbene compound to the solubilizer is 1:1-20.
Disclosed is a method for dissolving a flavonoid compound, a carbon glycoside compound or a stilbene compound, including: • mixing the flavonoid compound, the carbon glycoside compound or the stilbene compound with a solubilizer to obtain a reactant; and • heating water for injection to 80-98 °C, followed by stirring under vacuum conditions at 30-80 °C, and then adding the reactant under the protection of nitrogen gas or argon gas to obtain a solution of the reactant.
Considering the sensitivity to heat or light of the flavonoid compound, the carbon glycoside compound or the stilbene compound, a method is provided by heating water for injection to 80-98 °C to remove dissolved oxygen and other gases in water, which reduces the surface tension of water, increases the contact area of water with the flavonoid compound, the carbon glycoside compound or the stilbene compound, thus increasing the dissolution speed. Meanwhile, pre-heating the water for injection can effectively avoid degradation of the flavonoid compound, the carbon glycoside compound or the stilbene compound due to exposure to the dissolved oxygen, to eliminate unstable factors of the flavonoid compound, the carbon glycoside compound or the stilbene compound. The vacuum conditions can achieve further deoxygenation, facilitating the dissolution of the flavonoid compound, the carbon glycoside compound or the stilbene compound in water. Nitrogen gas or argon gas provides an inert atmosphere, which further reduces the surface tension of the materials, increases the contact area of the flavonoid compound, the carbon glycoside compound or the stilbene compound with water, and increases the dissolution speed.

CC(=O)Cc1cc(=O)c2c(C)cc(O)c([C@@H]3O[C@H](CO)[C@@H](O)[C@H](O)[C@H]3O)c2o1 [Aloesin]
dissolved in (time) (Example 22: 10 g with Hydroxypropyl-β-cyclodextrin 50 g, Sodium bicarbonate 1 g in 1000 ml, water heated to 88 °C, vacuum stirring 35 minutes, argon gas): about 5 minutes | dissolved in (time) (Example 26: 5 g with Gastrodin 100 g, Disodium edetate 0.1 g in 1000 ml, water heated to 95 °C, vacuum stirring 10 minutes, nitrogen gas): about 10 minutes

O=c1cc(-c2ccccc2)oc2cc(O)c(O)c(O)c12 [Baicalein]
dissolved in (time) (Example 9: 10 g with Sulfobutyl ether-β-cyclodextrin 50 g, Sodium bicarbonate 1 g in 1000 ml, water heated to 90 °C, vacuum stirring 20 minutes, argon gas): about 5 minutes

O=C(O)[C@H]1O[C@@H](Oc2cc3oc(-c4ccccc4)cc(=O)c3c(O)c2O)[C@H](O)[C@@H](O)[C@@H]1O [Baicalin]
dissolved in (time) (Example 10: 5 g with Gastrodin 100 g, Disodium edetate 0.1 g, Sodium carbonate 5 g in 1000 ml, water heated to 95 °C, vacuum stirring 10 minutes, nitrogen gas): about 5 minutes

O=C1c2c(O)cccc2C([C@@H]2O[C@H](CO)[C@@H](O)[C@H](O)[C@H]2O)c2cc(CO)cc(O)c21 (stereo partly shown) [Barbaloin]
dissolved in (time) (Example 19: 25 g with Gastrodin 100 g, Methyl-β-cyclodextrin 50 g, Sodium bicarbonate 1 g in 1000 ml, water heated to 95 °C, vacuum stirring 10 minutes, argon gas): about 10 minutes | dissolved in (time) (Example 23: 10 g with Methyl-β-cyclodextrin 50 g, Sodium bicarbonate 1 g in 1000 ml, water heated to 98 °C, vacuum stirring 10 minutes, argon gas): about 5 minutes | dissolved in (time) (Example 30: 5 g with Gastrodin 100 g, Disodium edetate 0.1 g in 1000 ml, water heated to 95 °C, vacuum stirring 10 minutes, nitrogen gas): about 10 minutes

COc1c(O)cc2c(c1O)[C@@H]1O[C@H](CO)[C@@H](O)[C@H](O)[C@H]1OC2=O [Bergenin]
dissolved in (time) (Example 21: 25 g with Gastrodin 100 g, Sulfobutyl ether-β-cyclodextrin 50 g, Sodium bicarbonate 1 g in 1000 ml, water heated to 85 °C, vacuum stirring 50 minutes, argon gas): about 10 minutes | dissolved in (time) (Example 25: 10 g with Sulfobutyl ether-β-cyclodextrin 50 g, Sodium bicarbonate 1 g in 1000 ml, water heated to 95 °C, vacuum stirring 10 minutes, argon gas): about 5 minutes | dissolved in (time) (Example 28: 5 g with Gastrodin 100 g, Disodium edetate 0.1 g in 1000 ml, water heated to 95 °C, vacuum stirring 10 minutes, nitrogen gas): about 10 minutes

O=c1c(-c2ccc(O)cc2)coc2cc(O)ccc12 [Daidzein]
dissolved in (time) (Example 7: 10 g with Methyl-β-cyclodextrin 50 g, Sodium bicarbonate 1 g in 1000 ml, water heated to 80 °C, vacuum stirring 60 minutes, argon gas): about 5 minutes

COc1ccc(/C=C/c2cc(O)cc(O[C@@H]3O[C@H](CO)[C@@H](O)[C@H](O)[C@H]3O)c2)cc1 [Deoxyrhapontin (methyl polydatin), Deoxyrhapontin]
dissolved in (time) (Example 43: 50 g with Gastrodin 100 g, Methyl-β-cyclodextrin 30 g in 1000 ml, water heated to 98 °C, vacuum stirring 15 minutes, nitrogen gas): about 5 minutes | dissolved in (time) (Example 49: 5 g with Sulfobutyl ether-β-cyclodextrin 30 g in 1000 ml, water heated to 95 °C, vacuum stirring 10 minutes, nitrogen gas): about 5 minutes | dissolved in (time) (Example 57: 10 g with Hydroxypropyl-β-cyclodextrin 50 g (formula; text: sulfobutyl ether-β-cyclodextrin) in 1000 ml, water heated to 95 °C, vacuum stirring 10 minutes, nitrogen gas): about 5 minutes | dissolved in (time) (Example 67: 5 g with Gastrodin 100 g in 1000 ml, water heated to 95 °C, vacuum stirring 10 minutes, nitrogen gas): about 5 minutes

O=C1CC(c2ccccc2)Oc2cc(O)c(O)c(O)c21 (stereo not shown) [Dihydrobaicalein]
dissolved in (time) (Example 13: 5 g with Gastrodin 100 g, Disodium edetate 0.1 g, Sodium carbonate 3 g in 1000 ml, water heated to 90 °C, vacuum stirring 25 minutes, nitrogen gas): about 5 minutes

COc1ccc([C@@H]2CC(=O)c3c(O)cc(O)cc3O2)cc1O [Hesperetin]
dissolved in (time) (Example 15: 5 g with Gastrodin 100 g, Disodium edetate 0.1 g, Sodium carbonate 2 g in 1000 ml, water heated to 95 °C, vacuum stirring 10 minutes, nitrogen gas): about 5 minutes

O=c1cc(-c2ccc(O)c(O)c2)oc2cc(O)c([C@@H]3O[C@H](CO)[C@@H](O)[C@H](O)[C@H]3O)c(O)c12 [Homoorientin]
dissolved in (time) (Example 20: 25 g with Gastrodin 100 g, Thioether-β-cyclodextrin 50 g, Sodium bicarbonate 1 g in 1000 ml, water heated to 80 °C, vacuum stirring 60 minutes, argon gas): about 10 minutes | dissolved in (time) (Example 24: 10 g with Thioether-β-cyclodextrin 50 g, Sodium bicarbonate 1 g in 1000 ml, water heated to 95 °C, vacuum stirring 10 minutes, argon gas): about 5 minutes

COc1ccc(-c2oc3cc(O)cc(O)c3c(=O)c2O)cc1 [Kaempferide]
dissolved in (time) (Example 4: 25 g with Gastrodin 100 g, Thioether-β-cyclodextrin 50 g, Sodium carbonate 1 g in 1000 ml, water heated to 98 °C, vacuum stirring 5 minutes, argon gas): about 5 minutes

Oc1ccc2c(c1)OC[C@H]1c3cc4c(cc3O[C@@H]21)OCO4 [Maackiain]
dissolved in (time) (Example 12: 5 g with Gastrodin 100 g, Disodium edetate 0.1 g, Sodium carbonate 3 g in 1000 ml, water heated to 95 °C, vacuum stirring 10 minutes, nitrogen gas): about 5 minutes

O=C1C[C@@H](c2ccc(O)cc2)Oc2cc(O)cc(O)c21 [Naringenin]
dissolved in (time) (Example 14: 5 g with Gastrodin 100 g, Disodium edetate 0.1 g, Sodium carbonate 2 g in 1000 ml, water heated to 98 °C, vacuum stirring 10 minutes, nitrogen gas): about 5 minutes

OC[C@H]1O[C@@H](Oc2cc(O)cc(/C=C/c3ccc(O)cc3)c2)[C@H](O)[C@@H](O)[C@@H]1O [Polydatin]
dissolved in (time) (Example 41: 25 g with Gastrodin 80 g, Sulfobutyl ether-β-cyclodextrin 30 g in 1000 ml, water heated to 85 °C, vacuum stirring 45 minutes, nitrogen gas): about 5 minutes | dissolved in (time) (Example 46: 5 g with Hydroxypropyl-β-cyclodextrin 30 g in 1000 ml, water heated to 83 °C, vacuum stirring 25 minutes, nitrogen gas): about 5 minutes | dissolved in (time) (Example 54: 10 g with Hydroxypropyl-β-cyclodextrin 50 g in 1000 ml, water heated to 95 °C, vacuum stirring 10 minutes, nitrogen gas): about 5 minutes | dissolved in (time) (Example 64: 5 g with Gastrodin 100 g in 1000 ml, water heated to 95 °C, vacuum stirring 10 minutes, nitrogen gas): about 5 minutes

O=c1c(-c2ccc(O)cc2)coc2c([C@@H]3O[C@H](CO)[C@@H](O)[C@H](O)[C@H]3O)c(O)ccc12 [Puerarin]
dissolved in (time) (Example 5: 25 g with Gastrodin 100 g, Sulfobutyl ether-β-cyclodextrin 50 g, Sodium carbonate 1 g in 1000 ml, water heated to 95 °C, vacuum stirring 3 minutes, argon gas): about 5 minutes | dissolved in (time) (Example 6 (formula: Daidzin 10 g) with Hydroxypropyl-β-cyclodextrin 50 g, Sodium bicarbonate 1 g in 1000 ml, water heated to 95 °C, vacuum stirring 8 minutes, argon gas): about 5 minutes

O=c1c(O)c(-c2ccc(O)c(O)c2)oc2cc(O)cc(O)c12 [Quercetin]
dissolved in (time) (Example 3: 25 g with Gastrodin 100 g, Methyl-β-cyclodextrin 50 g, Sodium carbonate 1 g in 1000 ml, water heated to 95 °C, vacuum stirring 1 minute, argon gas): about 5 minutes

Oc1ccc(C=Cc2cc(O)cc(O)c2)cc1 [Resveratrol]
dissolved in (time) (Example 39: 25 g with Gastrodin 80 g, Methyl-β-cyclodextrin 30 g in 1000 ml, water heated to 80 °C, vacuum stirring 60 minutes, nitrogen gas): about 5 minutes | dissolved in (time) (Example 44: 50 g with Gastrodin 100 g, Thioether-β-cyclodextrin 30 g in 1000 ml, water heated to 95 °C, vacuum stirring 10 minutes, nitrogen gas): about 5 minutes | dissolved in (time) (Example 50: 10 g with Hydroxypropyl-β-cyclodextrin 30 g in 1000 ml, water heated to 95 °C, vacuum stirring 10 minutes, nitrogen gas): about 5 minutes | dissolved in (time) (Example 60: 20 g with Thioether-β-cyclodextrin 50 g in 1000 ml, water heated to 95 °C, vacuum stirring 10 minutes, nitrogen gas): about 5 minutes

COc1ccc(/C=C/c2cc(O)cc(O[C@@H]3O[C@H](CO)[C@@H](O)[C@H](O)[C@H]3O)c2)cc1O [Rhapontin]
dissolved in (time) (Example 42: 50 g with Gastrodin 100 g, Hydroxypropyl-β-cyclodextrin 30 g in 1000 ml, water heated to 95 °C, vacuum stirring 10 minutes, nitrogen gas): about 5 minutes | dissolved in (time) (Example 48: 5 g with Thioether-β-cyclodextrin 30 g in 1000 ml, water heated to 92 °C, vacuum stirring 40 minutes, nitrogen gas): about 5 minutes | dissolved in (time) (Example 56: 10 g with Thioether-β-cyclodextrin 50 g in 1000 ml, water heated to 95 °C, vacuum stirring 10 minutes, nitrogen gas): about 5 minutes | dissolved in (time) (Example 66: 5 g with Gastrodin 100 g in 1000 ml, water heated to 95 °C, vacuum stirring 10 minutes, nitrogen gas): about 5 minutes
